Measurements taken from patent US10457665B2, “1,4-di-(4-methylthiophenyl)-3-phtaloylazetidine-2-one and the derivatives thereof” (Universite De Nantes, priority 2015, dated 2019).

Legend:
[1] = system: CB1R expression in liver explants of ob/ob mice; assay: Liver explant culture, CB1R gene expression (RT-PCR); assay type: cell-based, mouse; details: liver explants of ob/ob mice treated 21 h, FIG. 1
Experimental: The liver of the mice was perfused in situ, under sodium pentobarbital anaesthesia (50 mg/kg), with Hank's medium (pH 7.4) saturated with oxygen. Next, the liver was sectioned using a Brendel/Vitron slicer (Tucson, Ariz., USA) in the same medium. The liver sections (about 200 μm) were then incubated 21 h in William's medium E (WME) oxygenated and supplemented with deactivated foetal calf serum (10%) and antibiotic/antifungal cocktail (1%) under controlled atmosphere (5% CO2), to which is added either the antagonist to be tested or vehicle.
Total messenger RNA (mRNA) extraction was carried out with Tri Reagent (Euromedex, France) and consecutive synthesis of complementary DNA (cDNA) was carried out from 1 μg of mRNA with the Bio-Rad iScripttm Reverse Transcription super mix kit (Bio-Rad, France).
Gene expression was evaluated by semi-quantitative real-time reverse transcription-polymerase chain reaction (RT-PCR). The primers used were designed using the Primer3Plus software (http://www.bioinformatics.nl/cgi-bin/primer3plus/primer3plus.cgi) and were synthesized by MWG-Biotech (TATA box-binding protein: Sense […], antisense […]; CB1R: Sense […], antisense aaccccacccagtttgaac). Semi-quantification of gene expression was obtained by taking into account the efficacy of each PCR and after standardization with the reporter gene, TATA box-binding protein.

[2] = system: obese C57BL/6 mice; assay: Plasma liver markers after 30-day chronic treatment; assay type: in vivo, mouse
Source text: In order to determine the long-term effects of the molecules of interest, C57BL/6 mice made obese by means of a high-sucrose, high-fat diet (HSHF: 30% crude fat, 33.5% carbohydrates; ref. E15126-34; ref. E15126-34, SSNIFF, Soest, Germany) for 20 weeks. These mice then received daily an i.p. injection of rimonabant, JM-00.266 (i.e., compound IA) or vehicle for a period of 30 days. In parallel, weight and food intake were monitored every two days following the beginning of the treatment.
(§1) Total cholesterol, triglycerides and hepatic markers were assayed by a Dimension Vista Intelligent Lab System (Siemens, Saint-Denis, France) using suitable reagents.

[3] = system: obese C57BL/6 mice; assay: Open-field test after 30-day chronic treatment; assay type: in vivo, mouse; details: end of 30-day treatment, 10 mg/kg i.p.
Experimental: Locomotor activity of the mice was measured at the conclusion of the chronic treatment with rimonabant or molecule JM-00.266 (i.e., compound IA) by an infrared monitoring system. To that end, the animals were placed individually in 43×43 cm plexiglass boxes (MED associates) for 20 min. Two series of 16 pulsed infrared beams were spaced 2.5 cm apart on opposite walls to record ambulatory X-Y movements at 100 ms resolution. The centre was defined as a central 32×32 cm square. In addition to locomotor activity information, this test makes it possible to predict anxiolytic activity in response to novelty or to an anxiogenic environment. The variables measured in the open field are total ambulatory activity (in cm), the number of entries and the time spent in the central area as well as the distance traversed in the centre divided by the total distance traversed.

[4] = system: obese C57BL/6 mice; assay: OGTT before and after 30-day chronic treatment; assay type: in vivo, mouse; details: obese mice after 30 days of treatment, 10 mg/kg
Experimental: (§2) In order to evaluate the long-term effects of the treatment on blood glucose control, glucose tolerance (OGTT) and insulin sensitivity (ITT) were evaluated pre- and post-treatment. Thus, for the OGTT the mice were force-fed glucose (2 g/kg), and for the ITT the mice received an i.p. injection of insulin (0.5 IU/kg). In both cases, blood glucose was measured at times t=0, t=15 min, t=30 min, t=45 min, t=60 min, t=90 min, and t=120 min post-glucose ingestion using a Contour®TS blood glucose monitor (ref. 81574201, Bayer HealthCare) and reactive strips (ref. 81574274, Bayer HealthCare).

[5] = system: obese C57BL/6 mice; assay: ITT before and after 30-day chronic treatment; assay type: in vivo, mouse; details: obese mice after 30 days of treatment
Experimental: as §2

[6] = system: obese C57BL/6 mice; assay: Body mass, oral treatment simultaneously with food on high-fat diet; assay type: in vivo, mouse; details: obese mice on high-fat diet (35% crude fat), one administration daily during the meal, 10 mg/kg oral, 28 days
Experimental: C57BL/6 mice were made obese by means of a high-fat diet (35% crude fat, 25.3% carbohydrates; ref. E15742-34, SSNIFF, Soest, Germany) for 15 weeks. […] The weight of the animals was measured every two days from the beginning of the treatment.

[7] = system: liver, subcutaneous and visceral adipose tissue of obese mice; assay: Gene expression of markers (RT-PCR) in liver and adipose tissues after oral treatment with food; assay type: in vivo, mouse
Experimental: Total messenger RNA (mRNA) extraction was carried out with Tri-Reagent (Euromedex, France) and consecutive synthesis of complementary DNA (cDNA) was carried out from 1 μg of mRNA with the Bio-Rad iScripttm Reverse Transcription super mix kit (Bio-Rad, France). Gene expression was evaluated by semi-quantitative real-time reverse transcription-polymerase chain reaction (RT-PCR). The primers used, described below, were selected using the Primer3Plus software (http://www.bioinformatics.nl/cgi-25 bin/primer3plus/primer3plus.cgi) and synthesized by MWG-Biotech. Semi-quantification of gene expression was obtained by taking into account the efficacy of each PCR and standardization with the reporter gene TATA box-binding protein (TBP).
The impact of the treatment on endocannabinoid system activity is evaluated by measuring the gene expression 1) of receptors CB1R and CB2R 2) of the endocannabinoid synthesis enzyme, N-acyl phosphatidylethanolamine phospholipase D (NAPE-PLD) and 3) of the endocannabinoid degradation enzyme, fatty acid amide hydrolase (FAAH).
Fatty acid synthase (FAS), stearoyl-CoA desaturase 1 (SCD-1) and glycerol-phosphate acyl-transferase (GPAT2) are enzymes whose expression variations reflect lipogenic activity.
Glucose-6-phosphatase (G6P) and the glucose transporters GLUT2 and GLUT4 in the liver are used herein as neoglucogenesis markers.
F4/80 is a mature macrophage marker.
Tumour necrosis factor-alpha (TNF-a) is a proinflammatory cytokine affecting the regulation of numerous biological processes such as immune functions, cell differentiation and energy metabolism.

[8] = Plasma assay of triglycerides; assay type: in vivo, mouse; details: context of obesity; stated in conclusion only
Experimental: as §1

[9] = system: liver, subcutaneous and visceral adipose tissue of obese mice; assay: Gene expression of markers (RT-PCR) in liver and adipose tissues after oral treatment with food; assay type: in vivo, mouse; remark: listed apart in the source
[10] = obese mice, 10 mg/kg i.p. daily, 30 days

Structure (SMILES): CSc1ccc(C2C(N3C(=O)c4ccccc4C3=O)C(=O)N2c2ccc(SC)cc2)cc1 (stereo not drawn) [JM-00.266, trans-1,4-di-(4-methylthiophenyl)-3-N-phthaloyl-azetidine-2-one]
- hepatic CB1R expression [1]: significant decrease
- liver damage markers compared with the control ([2]; 30-day chronic treatment): does not cause an increase
- liver toxicity ([2]; chronic administration): no liver toxicity
- ALPI plasma concentration [2, 10]: 47.3 ± 3.6
- ALT plasma concentration [2, 10]: 34.3 ± 10.5 U/L
- AST plasma concentration [2, 10]: 60.8 ± 13.4 U/L
- Gamma GT plasma concentration [2, 10]: <3 U/L
- Total bilirubin plasma concentration [2, 10]: <2 µmol/L
- motor activity [3]: no effect
- time spent in the centre of the arena / anxiety state [3]: not altered
- basal blood glucose [4]: significant improvement
- glucose tolerance (OGTT 2 g/kg) [4]: significant improvement
- reduction in blood glucose induced by insulin injection, compared with SR141716 [5]: more marked
- insulin resistance (ITT) ([5]; 10 mg/kg): improved
- weight loss versus vehicle [6]: lose more weight
- TNF-a expression ([7]; adipose tissue): trend towards the reduction
- expression of FAS ([7]; adipose tissue): reduction
- expression of CB R ([7]; any of the tissues tested): not modified
- expression of FAAH ([7]; any of the tissues tested): not modified
- expression of GPAT ([7]; liver): reduction
- expression of SCD-1 ([7]; liver): reduction
- F4/80 expression ([7]; liver and adipose tissues): clearly decreased
- CB2R expression ([7]; tissues of treated animals): lower
- expression of NAPE-PLD ([7]; tissues tested, 28 d oral with food): reduction
- blood triglycerides [8]: decreasing blood triglycerides
- G6P expression [9]: reduction
- GLUT4 expression [9]: reduction
